This is an account of results in patent US20090105278A1, “Selective inhibitors of human corticosteroid syntheses” (Universitat Des Saarlandes, priority 2004, published 2009).

One data set concerns the target T1, human placental CYP19 (Homo sapiens, UniProt P11511).
T1 construct: The enzyme was obtained from the microsome fraction of fresh human placenta; from tissue; host or cells: human placenta, microsomal fraction
T1 sequence (P11511 1-503): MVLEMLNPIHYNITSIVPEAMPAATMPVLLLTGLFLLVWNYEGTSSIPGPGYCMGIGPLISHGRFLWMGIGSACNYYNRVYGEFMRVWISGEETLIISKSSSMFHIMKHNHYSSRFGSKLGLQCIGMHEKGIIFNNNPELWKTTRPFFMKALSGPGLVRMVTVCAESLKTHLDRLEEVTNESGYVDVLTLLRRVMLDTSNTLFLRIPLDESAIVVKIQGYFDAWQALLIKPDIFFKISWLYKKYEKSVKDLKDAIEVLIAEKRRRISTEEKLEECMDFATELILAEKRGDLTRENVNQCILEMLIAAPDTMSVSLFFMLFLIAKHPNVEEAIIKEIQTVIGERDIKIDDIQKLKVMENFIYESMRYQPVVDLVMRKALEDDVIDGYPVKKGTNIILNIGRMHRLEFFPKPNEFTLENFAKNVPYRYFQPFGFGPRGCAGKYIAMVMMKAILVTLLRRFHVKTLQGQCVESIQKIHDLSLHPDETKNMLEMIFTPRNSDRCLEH
Nature of the data set: IC50 of CYP19 (human placental microsomes). It is filed as biochemical. How it is done:
The isolated microsomes were suspended in a minimum volume of phosphate buffer (0.05 M; pH 7.4; […]). In addition, DTT (10 mM) and EDTA (1 mM) were added to protect the enzyme from degradation reactions.
[…] […] The compounds to be tested were dissolved in DMSO and diluted with buffer to the desired concentration. The final DMSO concentration of the control and inhibitor incubations was about 20%. Each vessel was preincubated in a water bath at 30° C. for 5 min. The reaction was started by adding the microsomal protein (0.1 mg). The total volume of each mixture was 200 μl. After 14 min, the reaction was quenched by adding 200 μl of ice cold 1 mM HgCl2 solution. Two hundred microliters of a 2% aqueous suspension of dextran-coated charcoal, DCC) was added for absorbing the steroids, and the vessels were shaken for 20 min. Thereafter, the charcoal was centrifuged off at 1500 g for 5 min. The radioactive water present in the supernatant (^3H2O) was assayed by scintillation measurement using an LKB-Wallac beta counter. The calculation of the IC50 values was effected by a semilogarithmic plot of the percent inhibition against the inhibitor concentration.

A further data set concerns the target T2, bovine adrenal CYP11B (Bos taurus, UniProt P15150).
T2 sequence (P15150 25-503): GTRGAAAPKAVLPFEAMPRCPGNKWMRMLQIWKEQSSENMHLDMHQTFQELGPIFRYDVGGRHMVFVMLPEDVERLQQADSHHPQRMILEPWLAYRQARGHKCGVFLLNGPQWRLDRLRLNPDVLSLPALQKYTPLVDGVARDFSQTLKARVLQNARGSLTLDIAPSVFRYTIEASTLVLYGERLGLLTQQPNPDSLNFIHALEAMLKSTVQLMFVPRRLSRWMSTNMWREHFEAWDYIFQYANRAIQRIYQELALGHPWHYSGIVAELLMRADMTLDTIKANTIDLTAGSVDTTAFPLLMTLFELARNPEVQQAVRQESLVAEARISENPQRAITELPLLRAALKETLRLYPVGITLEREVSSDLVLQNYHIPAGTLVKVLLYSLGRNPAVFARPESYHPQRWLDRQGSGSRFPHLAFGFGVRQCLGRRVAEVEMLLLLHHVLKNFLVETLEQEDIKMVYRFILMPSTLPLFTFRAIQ
The data set can be described thus: Percent inhibition of bovine CYP11B (adrenal mitochondria). The conditions noted are these: corticosterone substrate 200 μM, inhibitor 1 μM; for % Inhibition bovine bCYP11B: bovine adrenal mitochondria, 1 mg/ml protein; for inhibition at 1 µM: read-out: % Inhibition bovine bCYP11B, bovine adrenal mitochondria, 1 mg/ml protein.

The mark [1] stands for this setting: human placental CYP19, testosterone substrate 2.5 μM.

Structures can show the parent of a compound that is named as a salt. Where two headings read alike, the source gives them in different places.

Procedure for bovine adrenal CYP11B: Bovine adrenal glands obtained freshly after slaughtering were stored in ice cold Tris-sucrose buffer (0.25 M sucrose, 0.05 M Tris; pH 7.4) until processed. After removing the appending adipose tissue, the adrenal medulla was carefully separated from the adrenal cortex using scissors. The pieces of adrenal cortex were coarsely comminuted with scissors, washed with Tris-sucrose buffer, weighed and finely comminuted in the above buffer (2 ml per g of tissue) with a hand mixer. Thereafter, the tissue was homogenized with an Ultra-Turrax mixer. For separating coarse cell debris and the nuclei, the homogenizate was centrifuged twice for 15 min at 900 g and 4° C. The supernatant was subsequently centrifuged for 35 min at 11,000 g for recovering the mitochondrial fraction. For purifying the mitochondrial fraction, the precipitate was resuspended in Tri-sucrose buffer and again centrifuged at 11,000 g for 35 min. This washing step was performed two times in total. After the last centrifugation, the pellet was resuspended in Tris-sucrose buffer containing 0.001 M EDTA and frozen at −70° C.
The substrate corticosterone was dissolved in methanol and diluted with Tris buffer to a final concentration of 200 μM. The inhibitors were also dissolved in methanol and diluted with buffer to a final concentration of 1 μM. […] Corticosterone (200 μM) was incubated with inhibitor (1 μM) and mitochondrial enzyme (0.5 mg/0.5 ml) with the addition of a regenerating system consisting of NADP^+ (1 mM), glucose-6-phosphate (7 mM) and glucose-6-Phosphate dehydrogenase (1 IU/0.5 ml). Up to 5 inhibitors per test could be incubated in duplicate. […] After preincubation for 5 minutes (30° C.; water bath), the reaction was started by adding mitochondrial suspension. […] The blind values were admixed with 250 μl of HCl before the enzyme was pipetted in. The steroids were separated off by shaking with 1 ml of ethyl acetate (10 min). After centrifugation (15,000 g, 10 min), 900 μl of the organic phase was shaken with 250 μl 1 N NaOH (10 min), and 800 μl of supernatant was again washed with 250 μl of buffer. […] 18-OH-corticosterone (retention time: 10 min) and corticosterone (retention time: 21 min) were separated. The height of the 18-OH-corticosterone peak was used for evaluation. The percent inhibition of the 18-hydroxylation of corticosterone by the inhibitors was based on the mediums of the control incubation, taking the blind values into account.

Molecule `COc1ccc2c(c1)CCC/C2=C\c1cccnc1` [Compound 13a, 3-[(E)-(6-Methoxy-3,4-dihydronaphthalene-1(2H)-ylidene)methyl]pyridine Hydrochloride] showed an IC50 against human placental CYP19 (setting [1]) of 1.13 µM. That is a single-digit micromolar value. On to “5-[(E)-(6-Chloro-3,4-dihydronaphth-1(2H)-ylidene)methyl]-1H-imidazolium chloride [Compound 46a]”, for which the IC50 at human placental CYP19 (setting [1]) turned out to be 0.12 µM. Further, the “% Inhibition bovine bCYP11B” value at bovine adrenal CYP11B was 66%. Take `C(=C1/CCc2ccccc21)/c1cnc[nH]1` [Compound 42a, 5-[(E)-2,3-Dihydro-1H-indane-1-ylidenemethyl]-1H-imidazole]: the inhibition at 1 µM at bovine adrenal CYP11B was 62%. As for `Fc1ccc2c(c1)CC/C2=C\c1cncnc1` [Compound 28a, 5-[(E)-(5-Fluoro-2,3-dihydro-1H-indane-1-ylidene)methyl]pyrimidine Hydrochloride], the midpoint of inhibition against human placental CYP19 (setting [1]), the IC50, lay at 7.45 µM.

In the case of `Fc1ccc2c(c1)CC/C2=C\c1cccc2cnccc12` [Compound 30a, 5-[(E)-(5-Fluoro-2,3-dihydro-1H-indane-1-ylidene)methyl]isoquinoline Hydrochloride], on human placental CYP19 (setting [1]), the half-maximal inhibitory concentration (IC50) stood at 0.72 µM. Molecule `Fc1ccc2c(c1)CC/C2=C/c1ccncc1` [Compound 6b, 4-[(Z)-(5-Fluoro-2,3-dihydro-1H-indane-1-ylidene)methyl]pyridine Hydrochloride] returned an IC50 at human placental CYP19 (setting [1]) of 0.8 µM. Take `Cc1cccc2c1CC/C2=C\c1cccnc1` [Compound 23a, 3-[(E)-(4-Methyl-2,3-dihydro-1H-indane-1-ylidene)methyl]pyridine Hydrochloride]: half-maximal inhibition against human placental CYP19 (setting [1]) (IC50) required 4.72 µM. Molecule `COc1cccc2c1/C(=C/c1cccnc1)CC2` [Compound 26a, 3-[(E)-(7-Methoxy-2,3-dihydro-1H-indane-1-ylidene)methyl]pyridine Hydrochloride] registered a 50% inhibitory concentration (IC50) against human placental CYP19 (setting [1]) of 9.74 µM. On human placental CYP19 (setting [1]), `COc1ccc2c(c1)CC/C2=C/c1cccnc1` [Compound 11b, 3-[(Z)-(5-Methoxy-2,3-dihydro-1H-indane-1-ylidene)methyl]pyridine Hydrochloride] yielded a concentration for half-maximal inhibition (IC50) of 5.57 µM. With `Fc1cccc2c1CC/C2=C\c1cccnc1` [Compound 24a, 3-[(E)-(4-Fluoro-2,3-dihydro-1H-indane-1-ylidene)methyl]pyridine Hydrochloride], the IC50 against human placental CYP19 (setting [1]) came to 1.81 µM. As to `Clc1cccc2c1CC/C2=C/c1cccnc1` [Compound 25b, 3-[(Z)-(4-Chloro-2,3-dihydro-1H-indane-1-ylidene)methyl]pyridine Hydrochloride], at human placental CYP19 (setting [1]), the 50% inhibitory concentration (IC50) was determined as 0.23 µM. This IC50 is about 7.9-fold lower than that of the molecule before. For the molecule `C(=C1\CCc2ccccc21)/c1cnc[nH]1` [Compound 42b, 5-[(Z)-2,3-Dihydro-1H-ind-1-ylidenemethyl]-1H-imidazolium oxalate], at bovine adrenal CYP11B, the “% Inhibition bovine bCYP11B” value was 94% and the inhibition at 1 µM is roughly 90%.

For the molecule `COc1ccc2c(c1)CCC/C2=C/c1cccnc1.Cl` [Compound 13b, 3-[(Z)-(6-Methoxy-3,4-dihydronaphthalene-1(2H)-ylidene)methyl]pyridine Hydrochloride], the melting point is 151 °C. The same molecule displayed a half-inhibitory concentration (IC50) on human placental CYP19 (setting [1]) of 4 µM.

For `Fc1ccc2c(c1)CC/C2=C\c1ccncc1` [Compound 6a, 4-[(E)-(5-Fluoro-2,3-dihydro-1H-indane-1-ylidene)methyl]pyridine Hydrochloride], at human placental CYP19 (setting [1]), the IC50 was determined as 1.55 µM. This counts as single-digit micromolar. Turning to “5-[(Z)-(5-Bromo-2,3-dihydro-1H-indene-1-ylidene)methyl]-1H-imidazolium oxalate [Compound 49b]”, at bovine adrenal CYP11B, the “% Inhibition bovine bCYP11B” value stood at 88%. For the molecule `COc1ccc2c(c1)CC/C2=C\c1cccnc1` [Compound 11a, 3-[(E)-(5-Methoxy-2,3-dihydro-1H-indane-1-ylidene)methyl]pyridine Hydrochloride], the IC50 at human placental CYP19 (setting [1]) stood at 4.31 µM. Turning to `CCOc1ccc2c(c1)CC/C2=C\c1cccnc1` [Compound 19a, 3-[(E)-(5-Ethoxy-2,3-dihydro-1H-indane-1-ylidene)methyl]pyridine Hydrochloride], the half-maximal inhibitory concentration (IC50) at human placental CYP19 (setting [1]) was 7.08 µM. Against the preceding molecule, the IC50 is about 1.6-fold higher. On human placental CYP19, `C(=C1\CCc2ccccc21)/c1cccnc1.Cl` [Compound 1b, 3-[(Z)-2,3-Dihydro-1H-indane-1-ylidenemethyl]pyridine Hydrochloride] registered a half-inhibitory concentration (IC50) of 3.55 µM.

At human placental CYP19 (setting [1]), `Clc1cccc2c1CC/C2=C\c1cccnc1` [Compound 25a, 3-[(E)-(4-Chloro-2,3-dihydro-1H-indane-1-ylidene)methyl]pyridine Hydrochloride] showed an IC50 of 0.13 µM. `Clc1ccc2c(c1)CC/C2=C\c1ccncc1` [Compound 8a, 4-[(E)-(5-Chloro-2,3-dihydro-1H-indane-1-ylidene)methyl]pyridine Hydrochloride] came in with an IC50 against human placental CYP19 (setting [1]) of 5.43 µM.

On to `Fc1ccc2c(c1)CC/C2=C\c1cccnc1` [Compound 5a, 3-[(E)-(5-Fluoro-2,3-dihydro-1H-indane-1-ylidene)methyl]pyridine Hydrochloride], for which the IC50 on human placental CYP19 (setting [1]) stood at 2.54 µM. In the case of `Fc1ccc2c(c1)CC/C2=C/c1cccc2cnccc12` [Compound 30b, 5-[(Z)-(5-Fluoro-2,3-dihydro-1H-indane-1-ylidene)methyl]isoquinoline Hydrochloride], the IC50 at human placental CYP19 (setting [1]) was 1.94 µM. In turn, `C(=C1\CCCc2ccccc21)/c1cccnc1.Cl` [Compound 3b, 3-[(Z)-3,4-Dihydronaphthalene-1(2H)-ylidenemethyl]pyridine Hydrochloride] returned a melting point of 206 °C. At human placental CYP19 (setting [1]), this molecule showed a 50% inhibitory concentration (IC50) of 3.79 µM. For the molecule `Brc1ccc2c(c1)CC/C2=C/c1cccnc1` [Compound 9b, 3-[(Z)-(5-Bromo-2,3-dihydro-1H-indane-1-ylidene)methyl]pyridine Hydrochloride], the 50% inhibitory concentration (IC50) at human placental CYP19 (setting [1]) was 7.37 µM.

For `C(=C1\CCc2ccccc21)/c1ccncc1` [Compound 2b, 4-[(Z)-2,3-Dihydro-1H-indane-1-ylidenemethyl]pyridine oxalate], at human placental CYP19 (setting [1]), 12.7 µM corresponded to half-maximal inhibition (IC50). At human placental CYP19 (setting [1]), `CCOc1ccc2c(c1)CC/C2=C/c1cccnc1` [Compound 19b, 3-[(Z)-(5-Ethoxy-2,3-dihydro-1H-indane-1-ylidene)methyl]pyridine Hydrochloride] gave an IC50 of 7.68 µM. Against the preceding molecule, the IC50 is about 1.7-fold lower. On to “5-[(Z)-(5-Chloro-2,3-dihydro-1H-indene-1-ylidene)methyl]-1H-imidazolium oxalate [Compound 48b]”, for which the IC50 on human placental CYP19 (setting [1]) came to 0.039 µM. Besides, on bovine adrenal CYP11B, the “% Inhibition bovine bCYP11B” value worked out at 87%.

Consider `Clc1ccc2c(c1)CC/C2=C/c1cccnc1` [Compound 7b, 3-[(Z)-(5-Chloro-2,3-dihydro-1H-indane-1-ylidene)methyl]pyridine Hydrochloride], for which the 50% inhibitory concentration (IC50) against human placental CYP19 (setting [1]) is 4.05 µM. The same measure, in the same setting: next, `Brc1ccc2c(c1)CC/C2=C\c1cccnc1` [Compound 9a, 3-[(E)-(5-Bromo-2,3-dihydro-1H-indane-1-ylidene)methyl]pyridine Hydrochloride]: 7.83 µM. As to “5-[(Z)-3,4-Dihydronaphth-1(2H)-ylidenemethyl]-1H-imidazolium oxalate [Compound 41b]”, at human placental CYP19 (setting [1]), the IC50 came to 0.19 µM. The “% Inhibition bovine bCYP11B” value at bovine adrenal CYP11B amounted to 95%. In the case of `C(=C1/CCc2ccccc21)/c1cccnc1` [Compound 1a, 3-[(E)-2,3-Dihydro-1H-indane-1-ylidenemethyl]pyridine Hydrochloride], on human placental CYP19 (setting [1]), the IC50 came to 2.04 µM. The same measure, in the same setting: the same measure for `Clc1ccc2c(c1)CC/C2=C\c1cccnc1` [Compound 7a, 3-[(E)-(5-Chloro-2.3-dihydro-1H-indane-1-ylidene)methyl]pyridine Hydrochloride]: 4.26 µM. For `C(=C1/CCCc2ccccc21)/c1cccnc1.Cl` [Compound 3a, 3-[(E)-3,4-Dihydronaphthalene-1(2H)-ylidenemethyl]pyridine Hydrochloride], the melting point stood at 209 °C. Further, inhibition against human placental CYP19 (setting [1]) was half-maximal at 6.58 µM (IC50).

A word on the IC50: it is the concentration at which inhibition is half-maximal. A word on the melting point: it is the temperature, or range, at which the solid turns liquid.
